Measured values reported in ChEMBL document CHEMBL1154318, “Bicyclic alpha,omega-dicarboxylic acid derivatives from a colonial tunicate of the family Polyclinidae” (2009).
Values after ≈ are worked out from the molar mass of the structure shown. Active and inactive are the calls of the source. No cut-off for these calls is given here.

Key:
A549 = test: Cytotoxicity against human A549 cells after 48 hrs by sulforhodamine B assay; format: functional; conditions: A549, 48 h, read-out: ED50 (the source's name)
SK-OV-3 = test: Cytotoxicity against human SKOV3 cells after 48 hrs by sulforhodamine B assay; format: functional; conditions: SK-OV-3, 48 h, read-out: ED50 (the source's name)
SK-MEL-2 = test: Cytotoxicity against human SK-MEL-2 cells after 48 hrs by sulforhodamine B assay; format: functional; conditions: SK-MEL-2, 48 h, read-out: ED50 (the source's name)
XF498 = test: Cytotoxicity against human XF498 cells after 48 hrs by sulforhodamine B assay; format: functional; conditions: XF498, 48 h, read-out: ED50 (the source's name)
HCT-15 = test: Cytotoxicity against human HCT15 cells after 48 hrs by sulforhodamine B assay; format: functional; conditions: HCT-15, 48 h, read-out: ED50 (the source's name)
Streptococcus pyogenes [1] = test: Antibacterial activity against […] resistant Streptococcus pyogenes 308A at 100 ug/ml after 18 hrs by serial dilution; format: functional, organism-based
Streptococcus pyogenes [2] = test: Antibacterial activity against […] resistant Streptococcus pyogenes 77A at 100 ug/ml after 18 hrs by serial dilution; format: functional, organism-based
Enterococcus faecium = test: Antibacterial activity against […] resistant Streptococcus faecium MD 8b at 100 ug/ml after 18 hrs by serial dilution; format: functional, organism-based
Staphylococcus aureus [3] = test: Antibacterial activity against […] resistant Staphylococcus aureus SG 511 at 100 ug/ml after 18 hrs by serial dilution; format: functional, organism-based
Staphylococcus aureus [4] = test: Antibacterial activity against methicillin resistant Staphylococcus aureus 285 at 100 ug/ml after 18 hrs by serial dilution; format: functional, organism-based
Staphylococcus aureus [5] = test: Antibacterial activity against methicillin resistant Staphylococcus aureus 503 at 100 ug/ml after 18 hrs by serial dilution; format: functional, organism-based
Escherichia coli [6] = test: Antibacterial activity against […] resistant Escherichia coli 078 at 100 ug/ml after 18 hrs by serial dilution; format: functional, organism-based
Escherichia coli [7] = test: Antibacterial activity against […] resistant Escherichia coli DC 0 at 100 ug/ml after 18 hrs by serial dilution; format: functional, organism-based
Escherichia coli [8] = test: Antibacterial activity against […] resistant Escherichia coli DC 2 at 100 ug/ml after 18 hrs by serial dilution; format: functional, organism-based
Escherichia coli [9] = test: Antibacterial activity against […] resistant Escherichia coli TEM at 100 ug/ml after 18 hrs by serial dilution; format: functional, organism-based
Escherichia coli [10] = test: Antibacterial activity against […] resistant Escherichia coli 1507E at 100 ug/ml after 18 hrs by serial dilution; format: functional, organism-based
Pseudomonas aeruginosa [11] = test: Antibacterial activity against […] resistant Pseudomonas aeruginosa 9027 at 100 ug/ml after 18 hrs by serial dilution; format: functional, organism-based
Pseudomonas aeruginosa [12] = test: Antibacterial activity against […] resistant Pseudomonas aeruginosa 1592E at 100 ug/ml after 18 hrs by serial dilution; format: functional, organism-based
Pseudomonas aeruginosa [13] = test: Antibacterial activity against […] resistant Pseudomonas aeruginosa 1771 at 100 ug/ml after 18 hrs by serial dilution; format: functional, organism-based
Pseudomonas aeruginosa [14] = test: Antibacterial activity against […] resistant Pseudomonas aeruginosa 1771M at 100 ug/ml after 18 hrs by serial dilution; format: functional, organism-based
Salmonella enterica = test: Antibacterial activity against […] resistant Salmonella Typhimurium at 100 ug/ml after 18 hrs by serial dilution; format: functional, organism-based; conditions: Salmonella enterica subsp. enterica serovar Typhimurium
Klebsiella oxytoca = test: Antibacterial activity against […] resistant Klebsiella oxytoca 1082E at 100 ug/ml after 18 hrs by serial dilution; format: functional, organism-based
Klebsiella aerogenes = test: Antibacterial activity against […] resistant Klebsiella aerogenes 1522E at 100 ug/ml after 18 hrs by serial dilution; format: functional, organism-based
Enterobacter cloacae [15] = test: Antibacterial activity against […] resistant Enterobacter cloacae P 99 at 100 ug/ml after 18 hrs by serial dilution; format: functional, organism-based
Enterobacter cloacae [16] = test: Antibacterial activity against […] resistant Enterobacter cloacae 1321E at 100 ug/ml after 18 hrs by serial dilution; format: functional, organism-based
RAW264.7 [17] = test: Antiinflammatory activity in mouse RAW264.7 cells assessed as inhibition of NO production at 100 ug/ml; format: functional, cell-based
RAW264.7 [18] = test: Antiinflammatory activity in mouse RAW264.7 cells assessed as inhibition of IL-6 production at 100 ug/ml; format: functional, cell-based
RAW264.7 [19] = test: Antiinflammatory activity in mouse RAW264.7 cells assessed as inhibition of TNFalpha production at 100 ug/ml; format: functional, cell-based

O=C(O)CCC/C=C/[C@@H]1C=C[C@@H]2CCC[C@H]2[C@H]1/C=C/C=C/C(=O)NCCc1ccccc1 [APLIDIC ACID C]
EC50 (A549): 12.3 mg/L (≈ 28.4 µM) | EC50 (SK-OV-3): 14.7 mg/L (≈ 33.9 µM) | EC50 (SK-MEL-2): 14.5 mg/L (≈ 33.4 µM) | EC50 (XF498): 14 mg/L (≈ 32.3 µM) | EC50 (HCT-15): 12 mg/L (≈ 27.7 µM)

O=C(O)CCC/C=C/C=C/[C@@H]1C=C[C@@H]2CCC[C@H]2[C@H]1/C=C/C=C/C(=O)NCCc1ccccc1 [APLIDIC ACID B]
EC50 (A549): 28.4 mg/L (≈ 61.8 µM) | EC50 (SK-OV-3): 13.5 mg/L (≈ 29.4 µM) | EC50 (SK-MEL-2): 11.4 mg/L (≈ 24.8 µM) | EC50 (XF498): 21.6 mg/L (≈ 47 µM) | EC50 (HCT-15): 13.5 mg/L (≈ 29.4 µM)

COc1cccc2c1C(=O)c1c(O)c3c(c(O)c1C2=O)C[C@@](O)(C(=O)CO)C[C@@H]3O[C@H]1C[C@H](N)[C@H](O)[C@H](C)O1 [DOXORUBICIN]
EC50 (A549): 0.001 mg/L (≈ 0.00184 µM) | EC50 (SK-OV-3): 0.003 mg/L (≈ 0.00552 µM) | EC50 (SK-MEL-2): 0.001 mg/L (≈ 0.00184 µM) | EC50 (XF498): 0.029 mg/L (≈ 0.0534 µM) | EC50 (HCT-15): 0.071 mg/L (≈ 0.131 µM)

COC(=O)/C=C/C=C/[C@@H]1[C@@H]2CCC[C@H]2C=C[C@H]1/C=C/C=C/CCCC(=O)NCCC(=O)NCCc1c[nH]c2ccccc12 [APLIDIC ACID AMIDE A]
EC50 (A549): 17.5 mg/L (≈ 30 µM) | EC50 (SK-OV-3): 17.2 mg/L (≈ 29.5 µM) | EC50 (SK-MEL-2): 11.7 mg/L (≈ 20 µM) | EC50 (XF498): 15.6 mg/L (≈ 26.7 µM) | EC50 (HCT-15): 13.5 mg/L (≈ 23.1 µM)

COC(=O)/C=C/C=C/[C@@H]1[C@@H]2CCC[C@H]2C=C[C@H]1/C=C/C=C/CCCC(=O)O [APLIDIC ACID A]
EC50 (A549): 25.2 mg/L (≈ 68 µM) | EC50 (SK-OV-3): 15.2 mg/L (≈ 41 µM) | EC50 (SK-MEL-2): 11.6 mg/L (≈ 31.3 µM) | EC50 (XF498): 19.5 mg/L (≈ 52.6 µM) | EC50 (HCT-15): 12.4 mg/L (≈ 33.5 µM) | Activity (Streptococcus pyogenes [1]): inactive | Activity (Streptococcus pyogenes [2]): inactive | Activity (Enterococcus faecium): inactive | Activity (Staphylococcus aureus [3]): inactive | Activity (Staphylococcus aureus [4]): inactive | Activity (Staphylococcus aureus [5]): inactive | Activity (Escherichia coli [6]): inactive | Activity (Escherichia coli [7]): inactive | Activity (Escherichia coli [8]): inactive | Activity (Escherichia coli [9]): inactive | Activity (Escherichia coli [10]): inactive | Activity (Pseudomonas aeruginosa [11]): inactive | Activity (Pseudomonas aeruginosa [12]): inactive | Activity (Pseudomonas aeruginosa [13]): inactive | Activity (Pseudomonas aeruginosa [14]): inactive | Activity (Salmonella enterica): inactive | Activity (Klebsiella oxytoca): inactive | Activity (Klebsiella aerogenes): inactive | Activity (Enterobacter cloacae [15]): inactive | Activity (Enterobacter cloacae [16]): inactive | Activity (RAW264.7 [17]): inactive | Activity (RAW264.7 [18]): inactive | Activity (RAW264.7 [19]): inactive
